Molecular target: T1, human AMPK (α2β1γ1) (Homo sapiens, UniProt P54619+P54646+Q9Y478)
T1 construct: made in house; host or cells: E. coli
Test: AMPK (α2β1γ1) activation at molecular level, HTRF KinEASE-STK S1 kinase assay
Type: biochemical
Conditions: Table 1 and FIG. 1
Procedure: 1. Purpose of the experiment: To screen small molecule compounds that can activate AMPK (α2β1γ1).
2. Principle of the experiment: The peptide as substrate contains sites which can be AMPK phosphorylated. One terminal of the peptide is linked with biotin in the reaction system (containing 2 mM MgCl2, 400 μM DTT, 160 nM substrate peptide, 4 μM ATP and 1.6 nM AMPK). In the biotinylated terminal, biotin can link with streptavidin-XL665 (acceptor) so as to complete the labeling. After 45 minute of phosphorylation reaction, the phosphorylated substrate (i.e., product) can bind to an antibody (labeled Donor) which recognizes the phosphorylating site, and the biotin on the other terminal can linked to streptavidin-XL665 (acceptor) so that the resulting FRET signal can be detected with PE Evision. The final AMPK activity is expressed as a ratio of the 665 nm wavelength reading to the 615 nm wavelength reading (665 nm/615 nm).
3. Detection reagent: The human AMPK (α2β1γ1) protein was obtained by expression using an E. coli expression system and purification. HTRF KinEASE-STK S1 kit (purchased from Cisbio's); ATP (purchased from Sigma).
1) 200 nM AMPK (α2β1γ1) protein was incubated with 200 nM CaMKKβ at 30° C. for 4 hours in water bath to completely phosphorylate AMPK.
2) The enzyme reaction system (2 mM MgCl2, […], 160 nM substrate peptide, 4 µM ATP, and 1.6 nM AMPK) was prepared by using a white shallow plate purchased from PE. The reaction was reacted at 30° C. for 45 minutes. Phosphorylated recognizing peptides of the antibody and the XL665 Detection buffer were added and the mixture was incubated at room temperature for 3 hours before the signals were detected.

T1 sequence (P54646 whole entry): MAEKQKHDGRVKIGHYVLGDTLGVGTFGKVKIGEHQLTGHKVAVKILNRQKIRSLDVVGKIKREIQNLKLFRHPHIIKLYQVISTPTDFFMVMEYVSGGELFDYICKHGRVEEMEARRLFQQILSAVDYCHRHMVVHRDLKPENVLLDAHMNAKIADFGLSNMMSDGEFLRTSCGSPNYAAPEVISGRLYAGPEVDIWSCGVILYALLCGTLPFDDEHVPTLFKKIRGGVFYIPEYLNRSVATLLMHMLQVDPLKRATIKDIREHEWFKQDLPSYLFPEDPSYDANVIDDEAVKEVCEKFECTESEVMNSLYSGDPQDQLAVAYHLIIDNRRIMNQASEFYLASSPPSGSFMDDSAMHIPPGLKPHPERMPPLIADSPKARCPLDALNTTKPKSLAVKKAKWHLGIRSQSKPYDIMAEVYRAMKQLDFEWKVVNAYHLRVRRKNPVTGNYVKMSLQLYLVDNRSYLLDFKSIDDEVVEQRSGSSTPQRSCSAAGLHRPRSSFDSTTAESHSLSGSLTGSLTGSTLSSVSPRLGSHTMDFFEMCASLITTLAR
T1 sequence (Q9Y478 whole entry): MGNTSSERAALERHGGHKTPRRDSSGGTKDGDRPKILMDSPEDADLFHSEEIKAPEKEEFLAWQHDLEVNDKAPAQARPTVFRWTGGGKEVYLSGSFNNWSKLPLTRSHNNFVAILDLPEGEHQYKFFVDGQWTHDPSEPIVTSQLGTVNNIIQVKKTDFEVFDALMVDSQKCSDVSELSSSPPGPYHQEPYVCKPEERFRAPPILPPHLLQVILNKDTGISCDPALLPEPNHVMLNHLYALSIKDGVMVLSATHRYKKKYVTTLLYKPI
T1 sequence (P54619 whole entry): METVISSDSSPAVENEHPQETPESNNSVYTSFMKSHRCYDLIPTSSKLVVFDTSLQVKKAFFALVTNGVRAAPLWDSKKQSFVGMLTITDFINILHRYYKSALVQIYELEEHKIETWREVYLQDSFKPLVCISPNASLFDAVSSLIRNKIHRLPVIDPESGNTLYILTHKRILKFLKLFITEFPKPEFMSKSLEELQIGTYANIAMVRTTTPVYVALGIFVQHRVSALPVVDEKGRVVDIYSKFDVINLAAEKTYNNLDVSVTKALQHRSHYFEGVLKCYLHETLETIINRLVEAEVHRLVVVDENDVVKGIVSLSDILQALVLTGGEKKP

Compound | allosteric activation of AMPK in molecular level
COc1ccc(CNC(=O)c2ccc(CN3C=C4C(=O)N(c5ccc(F)c(C(F)(F)F)c5)N=C4CC3)cc2)cc1OC [ZM-1] | significantly and allosterically activate AMPK

Same assay, conditions: activation of human AMPK (α2β1γ1), 4 μM ATP, 45 min at 30° C.

Compound | Activation ratio (Fold) | EC50 [µM]
COc1ccc(CNC(=O)c2ccc(CN3C=C4C(=O)N(c5ccc(F)c(C(F)(F)F)c5)N=C4CC3)cc2)cc1OC [ZM-1] | 3.3 | 2.1
COC(=O)c1ccc(CN2C=C3C(=O)N(c4ccc(F)c(C(F)(F)F)c4)N=C3CC2)cc1 [ZM-2, Methyl 4-((2-(4-fluoro-3-(trifluoromethyl)phenyl)-3-oxo-6,7-dihydro-2H-pyrazolo[4,3-c]pyridin-5(3H)-yl)methyl)benzoic acid] |  | 5.8
COC(=O)c1ccc(CN2CCC3=NN(c4ccc(F)c(C(F)(F)F)c4)C(=O)C3C2)cc1 (stereo not drawn) [ZM-3, Methyl 4-((2-(4-fluoro-3-(trifluoromethyl)phenyl)-3-oxo-3a,4,6,7-tetrahydro-2H-pyrazolo[4,3-c]pyridin-5(3H)-yl)methyl)benzoic acid] |  | 9.8
COC(=O)c1cccc(CN2CCC3=NN(c4ccc(F)c(C(F)(F)F)c4)C(=O)C3C2)c1 (stereo not drawn) [ZM-4] | 3.2 | 8.4
COc1ccc(CNC(=O)c2ccc(CN3CCc4c(c(=O)n(-c5ccc(F)c(C(F)(F)F)c5)n4C)C3)cc2)cc1OC [ZM-5] | 3.6 | 3.3
O=C(NCc1ccccc1)c1ccc(CN2C=C3C(=O)N(c4ccc(F)c(C(F)(F)F)c4)N=C3CC2)cc1 [ZM-8] | 3.0 | 8.6
COc1cccc(CNC(=O)c2ccc(CN3C=C4C(=O)N(c5ccc(F)c(C(F)(F)F)c5)N=C4CC3)cc2)c1 [ZM-9] | 2.8 | 5.3
CCNC(=O)c1ccc(CN2C=C3C(=O)N(c4ccc(F)c(C(F)(F)F)c4)N=C3CC2)cc1 [ZM-10] | 2.7 | 10
COc1cc(CNC(=O)c2ccc(CN3C=C4C(=O)N(c5ccc(F)c(C(F)(F)F)c5)N=C4CC3)cc2)cc(OC)c1OC [ZM-11] | 3.5 | 7.5
C[C@@H](NC(=O)c1ccc(CN2C=C3C(=O)N(c4ccc(F)c(C(F)(F)F)c4)N=C3CC2)cc1)c1ccccc1 [ZM-14] | 2.5 | 9.7
O=C(NCC1CCCCC1)c1ccc(CN2C=C3C(=O)N(c4ccc(F)c(C(F)(F)F)c4)N=C3CC2)cc1 [ZM-15] | 2.2 | 5.8
COc1ccc(CNC(=O)c2ccc(CN3C=C4C(=O)N(c5cccc(C(F)(F)F)c5)N=C4CC3)cc2)cc1OC [ZM-16] | 3.2 | 5.6

More lines, in order of falling EC50, values ahead:

Activation ratio (Fold) | EC50 [µM] | Compound
3.0 | 5 | O=C(NCc1ccc2c(c1)OCO2)c1ccc(CN2C=C3C(=O)N(c4ccc(F)c(C(F)(F)F)c4)N=C3CC2)cc1 [ZM-12]
2.7 | 4.6 | COc1ccc(CNC(=O)c2cccc(CN3C=C4C(=O)N(c5ccc(F)c(C(F)(F)F)c5)N=C4CC3)c2)cc1OC [ZM-7]
2.5 | 3.3 | O=C(NCc1cccc2c1OCO2)c1ccc(CN2C=C3C(=O)N(c4ccc(F)c(C(F)(F)F)c4)N=C3CC2)cc1 [ZM-13]
3.0 | 1.1 | COc1ccc(CN(C)C(=O)c2ccc(CN3C=C4C(=O)N(c5ccc(F)c(C(F)(F)F)c5)N=C4CC3)cc2)cc1OC [ZM-6]
2.6 | 0.3 | Nc1ncnc2c1ncn2[C@@H]1O[C@H](COP(=O)(O)O)[C@@H](O)[C@H]1O [AMP, reference compound]

Tested on: AMPK and ACC phosphorylation on L6 myotubes
Test: AMPK and ACC phosphorylation on L6 myotubes (western blot)
Type: cell-based
Conditions: L6 muscle cells treated for 1 hour, FIGS. 2A and 2B
Procedure: (§1) 2. Experimental principle: Small molecule compounds allosterically activate AMPK and cause the phosphorylation of substrate acetyl-CoA carboxylase (ACC) at Ser-79-site.
(§2) 3. Detection reagents: AMPK, phospho-AMPK (T172), phospho-ACC (S79), and total ACC antibodies were purchased from Cell Signaling Technology.
(§3) 1) The cells were exchanged into serum-free medium and starved for two hours, and compounds were added to treat (in 0.4% DMSO) for 1 hour. The cells to be harvested were washed with PBS once. 1×SDS gel loading buffer (50 mM Tris (pH6.8), 100 mM DTT, 2% SDS, 10% glycerol, 0.1% bromophenol blue) was added to lysis cells (24 well plates, […] per well).
(§4) 2) The sample was heated at 100° C. for 10 minutes and then centrifuged at 12000 g for 10 minutes. The supernatant was subjected to SDS-PAGE electrophoresis under following condition: spacer gel: 70 volts, and separation gel: 90 volts.
(§5) 3) After electrophoresis, the proteins were transferred onto nitrocellulose membrane using Biorad wet electrical transduction system. After the desired band was cut, the strips were blocked in a blocking solution (TBST, containing 5% BSA) for 1 hour at room temperature. The strips were place in a solution containing the primary antibody and incubated overnight at 4° C.
(§6) 4) On next day, the target band was placed in TBST and washed at room temperature for 10 minutes (3 times). […]

Compound | AMPK activation at the cellular level | downstream phosphorylation levels of ACC
COc1ccc(CNC(=O)c2ccc(CN3C=C4C(=O)N(c5ccc(F)c(C(F)(F)F)c5)N=C4CC3)cc2)cc1OC [ZM-1] | dose-dependently activated | increased accordingly

Tested on: AMPK and ACC phosphorylation on HepG2 cells
Test: AMPK and ACC phosphorylation on HepG2 cells (western blot)
Type: cell-based
Conditions: different concentrations, FIG. 3
Procedure: as §1, §2, §3, §4, §5, §6

Compound | AMPK activation | phosphorylation of ACC
COc1ccc(CNC(=O)c2ccc(CN3C=C4C(=O)N(c5ccc(F)c(C(F)(F)F)c5)N=C4CC3)cc2)cc1OC [ZM-1] | activate AMPK | upregulate phosphorylation of ACC in a concentration or gradient dependent manner

Tested on: AMPK and ACC phosphorylation on SD rat primary hepatocytes
Test: AMPK and ACC phosphorylation on SD rat primary hepatocytes (western blot)
Type: cell-based
Conditions: primary hepatocytes of SD rats, different concentrations, FIG. 4
Procedure: as §1, §2, §3, §4, §5, §6

Compound | AMPK activation | phosphorylation of ACC
COc1ccc(CNC(=O)c2ccc(CN3C=C4C(=O)N(c5ccc(F)c(C(F)(F)F)c5)N=C4CC3)cc2)cc1OC [ZM-1] | activate AMPK | upregulate phosphorylation of ACC in a concentration or gradient dependent manner
